Results: US20160304556A1, “[…] ACTIVE COMPOUNDS AND THEIR METHODS OF USE” (AGIOS PHARMACEUTICALS, INC, priority 2012, published 2016)

Assays:
[1] = biological target: IDH1 R132C (Homo sapiens, UniProt O75874, R132C); assay: In vitro NADPH depletion assay for IDH1m R132C inhibitors; type: biochemical; details: enzyme, diaphorase/resazurin readout, read-out: IDH R132C IC50
Protocol: (§1) A test compound is prepared as 10 mM stock in DMSO and diluted to 50× final concentration in DMSO, for a 50 μl reaction mixture. IDH enzyme activity converting alpha-ketoglutarate to 2-hydroxyglutaric acid is measured using a NADPH depletion assay. In the assay the remaining cofactor is measured at the end of the reaction with the addition of a catalytic excess of diaphorase and resazurin, to generate a fluorescent signal in proportion to the amount of NADPH remaining. IDH1-R132 homodimer enzyme is diluted to […] in 40 μl of Assay Buffer(150 mM NaCl, 20 mM Tris-Cl pH 7.5, 10 mM MgCl2, 0.05% BSA, 2 mM b-mercaptoethanol); 1 μl of test compound dilution in DMSO is added and the mixture is incubated for 60 minutes at room temperature. The reaction is started with the addition of 10 μl of Substrate Mix ([…], 5 mM alpha-ketoglutarate, in Assay Buffer) and the mixture is incubated for 90 minutes at room temperature. The reaction is terminated with the addition of 25 μl of Detection Buffer (36 μg/ml diaphorase, […], in 1× Assay Buffer), and is incubated for 1 minute before reading on a SpectraMax platereader at Ex544/Em590.
Compounds are assayed for their activity against IDH1 R132C following the same assay as above with the following modifications: Assay Buffer is (50 mM potassium phosphate, pH 6.5; 40 mM sodium carbonate, 5 mM MgCl2, 10% glycerol, 2 mM b-mercaptoethanol, and 0.03% BSA). The concentration of NADPH and alpha-ketoglutarate in the Substrate Buffer is 20 μM and 1 mM, respectively.
(§2) Representative compounds of formula I set forth in Table 1 were tested in this assay and the results are set forth below in Table 3.

[2] = biological target: IDH1 R132H (Homo sapiens, UniProt O75874, R132H); assay: In vitro NADPH depletion assay for IDH1m R132H inhibitors; type: biochemical; details: enzyme, diaphorase/resazurin readout, read-out: IDH R132H IC50
IDH1 R132H, sequence (O75874 whole entry R132H): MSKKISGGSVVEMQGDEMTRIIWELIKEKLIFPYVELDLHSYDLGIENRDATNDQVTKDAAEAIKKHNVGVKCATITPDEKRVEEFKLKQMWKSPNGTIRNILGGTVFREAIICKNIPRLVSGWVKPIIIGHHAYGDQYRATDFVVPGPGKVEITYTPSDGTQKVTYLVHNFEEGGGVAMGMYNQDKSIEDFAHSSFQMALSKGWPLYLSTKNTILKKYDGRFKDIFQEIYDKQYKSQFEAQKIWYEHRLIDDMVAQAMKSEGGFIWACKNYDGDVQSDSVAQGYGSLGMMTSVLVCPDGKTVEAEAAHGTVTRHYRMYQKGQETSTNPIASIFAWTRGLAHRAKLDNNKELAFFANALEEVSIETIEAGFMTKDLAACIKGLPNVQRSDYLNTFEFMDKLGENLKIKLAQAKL
Protocol: as §1, §2

IDH1 R132C, sequence (O75874 whole entry R132C): as the sequence (O75874 whole entry R132H) above, with H132C counted along it

Row | IC50 [1] [nM] | IC50 [2] [nM] | SMILES
1 | 100 to 500 | 100 to 500 | COC(=O)N1CCN(C(C)=O)C[C@H]1C(=O)N(c1cccc(F)c1)[C@@H](C(=O)NC1CC(F)(F)C1)c1ccccc1Cl [Compound 67, (S)-Methyl 4-acetyl-2-(((R)-1-(2-chlorophenyl)-2-(3,3-difluorocyclobutylamino)-2-oxoethyl)(3-fluorophenyl)carbamoyl)piperazine-1-carboxylate]
2 | 100 to 500 | 500 to 1000 | O=C(NC1CC(F)(F)C1)C(c1ccccc1Cl)N(C(=O)c1ccnn1-c1ncccn1)c1cccc(F)c1 (stereo not shown) [Compound 116, N-(1-(2-chlorophenyl)-2-((3,3-difluorocyclobutyl)amino)-2-oxoethyl)-N-(3-fluorophenyl)-1-(pyrimidin-2-yl)-1H-pyrazole-5-carboxamide]
3 | 500 to 1000 | 100 to 500 | COC(=O)N[C@@H](CO)C(=O)N(c1cccc(F)c1)C(C(=O)NC1CC(F)(F)C1)c1ccccc1Cl (stereo partly shown) [Compound 56]
4 | 1000 to 2000 | 500 to 1000 | COC(=O)N1C[C@H](OCCN(C)C)C[C@H]1C(=O)N(c1cccc(F)c1)[C@H](C(=O)NC1CC(F)(F)C1)c1ccccc1Cl [Compound 104]
5 | 1000 to 2000 | 100 to 500 | O=C(NC1CC(F)(F)C1)C(c1ccccc1Cl)N(C(=O)Cn1cncn1)c1cccc(F)c1 (stereo not shown) [Compound 36]
6 | 100 to 500 | 100 to 500 | COC(=O)NCC(=O)N(c1cccc(F)c1)C(C(=O)NC1CC(F)(F)C1)c1c(Cl)cccc1Cl (stereo not shown) [Compound 76]
7 | 100 to 500 | 100 to 500 | O=C(NC1CCC(F)(F)CC1)C(c1ccccc1Cl)N(C(=O)Cn1cnnn1)c1cccc(F)c1 (stereo not shown) [Compound 49]
8 | 1000 to 2000 | 500 to 1000 | COC(=O)NCC(=O)N(c1cccc(F)c1)C(C(=O)NC1CC(F)(F)C1)c1c(F)cccc1F (stereo not shown) [Compound 78]
9 | 500 to 1000 | 100 to 500 | COC(=O)NCC(=O)N(c1cccc(F)c1)C(C(=O)NC1CC(F)(F)C1)c1c(F)cccc1Cl (stereo not shown) [Compound 77]
10 | 500 to 1000 | 100 to 500 | COC(=O)N1C[C@H](N)C[C@H]1C(=O)N(c1cccc(F)c1)[C@H](C(=O)NC1CC(F)(F)C1)c1ccccc1Cl [Compound 65]
11 | 500 to 1000 | 100 to 500 | O=C(NC1CC(F)(F)C1)C(c1ccccc1Cl)N(C(=O)Cn1ccnc1CO)c1cccc(F)c1 (stereo not shown) [Compound 72]
12 | 500 to 1000 | 500 to 1000 | COC(=O)N[C@H](C(=O)N(c1cccc(F)c1)C(C(=O)NC1CC(F)(F)C1)c1ccccc1Cl)[C@@H](C)O (stereo partly shown) [Compound 99]
13 | 500 to 1000 | 100 to 500 | COC(=O)N1C[C@@H](N)C[C@H]1C(=O)N(c1cccc(F)c1)[C@H](C(=O)NC1CC(F)(F)C1)c1ccccc1Cl [Compound 89]
14 | 100 to 500 | 100 to 500 | COC(=O)N1CCN(C)C[C@H]1C(=O)N(c1cccc(F)c1)[C@H](C(=O)NC1CC(F)(F)C1)c1ccccc1Cl [Compound 80, (S)-Methyl 2-(((S)-1-(2-chlorophenyl)-2-(3,3-difluorocyclobutylamino)-2-oxoethyl)-(3-fluorophenyl)carbamoyl)-4-methylpiperazine-1-carboxylate]
